Assay results published in patent publication US20180125898A1, “MARINE LECITHIN PREPARATIONS WITH ENHANCED OXIDATION RESISTANCE” (AKER BIOMARINE ANTARCTIC AS, priority 2014, published 2018).

Experiment: Gastric model: incubation in simulated gastric fluid (SGF), LOOH (FOX assay) and MDA, oxidation resistance score
Format: physicochemical
Details: conventional krill oil with high TMAO, three concentrations of Astaxanthin (increased more than 10 fold), 180 minutes
Protocol: Hydroperoxide level was tested by FOX analysis. Measurements were conducted at 562 nm, the absorbance of the Ferric-Xylenol Orange Complex. (Gay 1999).
Malondialdehyde (MDA) level was tested by modified TBARS test. The thiobarbituric acid-MDA adduct was quantified by HPLC (Fenaille 2001) or spectrophotometer.
Marine lecithin preparations according to the invention and conventional marine lecithins were incubated while shaken in simulated gastric fluid (SGF) which contains 2 mg/ml NaCl, 3.2 mg/ml HCl 37%, and 7 mg/ml Pepsine and with 200 μM Ascorbic acid and 50 μM FeCl3 as oxidation catalysts, at 37° C. for 180 min. The final concentration of the oils was 10 mg/ml. Peroxidation markers hydroperoxide (LOOH, by Ferric-Xylenol Orange Complex—FOX assay) and malondialdehyde (MDA-TBA2 HPLC analysis) were analyzed following 180 minutes of incubation in the gastric model.
In order to rank the oils according to their resistance to oxidation in gastric model, a score scale was developed. […]
Conventional krill oil, containing high concentration of TMAO, was enriched with three concentrations of Astaxanthin and incubated in simulated gastric fluid (SGF) as described in Example 3. Hydroperoxide as peroxidation marker (LOOH, by Ferric-Xylenol Orange Complex—FOX assay—see method above) was analyzed following 180 minutes. […]

change in LOOH levels by Astaxanthin enrichment: only minimal change in LOOH levels
Compound: CC1=C(/C=C/C(C)=C/C=C/C(C)=C/C=C/C=C(C)/C=C/C=C(C)/C=C/C2=C(C)C(=O)[C@@H](O)CC2(C)C)C(C)(C)C[C@H](O)C1=O [Astaxanthin]
